From patent publication US20120142771A1, “BIPHENYLACETAMIDE DERIVATIVE” (Dainippon Sumitomo Pharma Co., Ltd., priority 2008, published 2012)

Tests used:
[1] = tested on: subcutaneously pentetrazol-injected model (scPTZ); test: Subcutaneously pentetrazol-injected model (scPTZ) test; type: in vivo, mice; details: pentetrazol 85 mg/kg s.c. after 1 hour; for responders at 100 mg/kg / responders at 50 mg/kg: Mus musculus, po, 1 h, Slc: ddY male mice, 3 per group, observed 30 minutes for clonic convulsion, read-out: scPTZ (positive number/tested number) (converted); for responders at 100 mg/kg: 100 mg/kg oral; for responders at 50 mg/kg: 50 mg/kg oral; for anticonvulsant action in subcutaneously pentetrazol-injected model (scPTZ) test: mice, oral 50 or 100 mg/kg
Description: In order to evaluate the antiepileptic activity of each drug, maximum electroshock seizure (MES) model, subcutaneously pentetrazol-injected model (scPTZ), and amygdala kindling model in rats were used because they show a good clinical prediction. […] Test with Subcutaneously Pentetrazol-Injected Model (scPTZ) Similar to Test 1, Test 2 evaluates the anticonvulsant action of medicaments. However, unlike Test 1, animal model used herein represents the clinical phenotypes of generalized absence seizure and myoclonic seizure. Test compounds (50 or 100 mg/kg) were orally administered to Slc: ddY male mice (3 mice in each group, body weight 20-30 g). After an hour, pentetrazol (85 mg/kg) was subcutaneously administered. […] To the control mice, 0.5% tragacanth solution or 0.5% methylcellulose solution was administered.

[2] = tested on: maximum electroshock seizure (MES) model; test: Maximum electroshock seizure (MES) model test; type: in vivo, mice; details: for responders at 50 mg/kg / responders at 100 mg/kg: Mus musculus, po, 1 h, Slc: ddY male mice, 3 per group, electrical stimulation 1 hour after administration, inhibition of hind limb extension, read-out: MES (positive number/tested number) (converted); for responders at 50 mg/kg: 50 mg/kg oral; for responders at 100 mg/kg: 100 mg/kg oral; for anticonvulsant action in maximum electroshock seizure (MES) model test: mice, oral 50 or 100 mg/kg, 1 hour after administration
Description: In order to evaluate the antiepileptic activity of each drug, maximum electroshock seizure (MES) model, subcutaneously pentetrazol-injected model (scPTZ), and amygdala kindling model in rats were used because they show a good clinical prediction.
Test 1: Test with Maximum Electroshock Seizure (MES) Model
Test 1 evaluates the anticonvulsant action of medicaments. Animal model used herein represents the clinical phenotypes of generalized tonic seizure and secondarily generalized tonic-clonic seizure. Test compounds (50 or 100 mg/kg) were orally administered to Slc: ddY male mice (3 mice in each group, body weight 20-30 g). After an hour of administration, their corneas were electrically stimulated (60 Hz, 25 mA, 0.2 second) to induce tonic convulsion (tonic extensor in their hind limbs). […] To the control mice, 0.5% tragacanth solution or 0.5% methylcellulose solution was administered.

| SMILES | responders at 100 mg/kg [1] | responders at 50 mg/kg [2] | responders at 100 mg/kg [2] | responders at 50 mg/kg [1] | anticonvulsant action in subcutaneously pentetrazol-injected model (scPTZ) test [1] | anticonvulsant action in maximum electroshock seizure (MES) model test [2] |
| --- | --- | --- | --- | --- | --- | --- |
| NC(=O)Cc1cc(Cl)ccc1-c1ccccc1 [Example 35] | 0% | 0% | 66.7% | – | – | – |
| CNC(=O)Cc1cc(Cl)ccc1-c1ccccc1 [Example 36] | 33.3% | 0% | 100% | – | – | – |
| CCNC(=O)Cc1cc(Cl)ccc1-c1ccccc1 [Example 37] | 33.3% | – | 0% | – | – | – |
| CN(C)C(=O)Cc1cc(Cl)ccc1-c1ccccc1F [Example 38] | 100% | – | 0% | 0% | – | – |
| CNC(=O)Cc1ccc(F)cc1-c1ccccc1 [Example 40] | 0% | 33.3% | 100% | – | – | – |
| CNC(=O)Cc1ccc(F)cc1-c1ccccc1F [Example 42] | 66.7% | – | 33.3% | 33.3% | – | – |
| NC(=O)Cc1ccc(F)cc1-c1cccc(Cl)c1 [Example 43] | 66.7% | 66.7% | 66.7% | 33.3% | – | – |
| NC(=O)Cc1cc(F)ccc1-c1ccccc1 [Example 44, 2-(4-fluorobiphenyl-2-yl)acetamide] | 0% | 100% | 100% | – | – | – |
| CNC(=O)Cc1cc(F)ccc1-c1ccccc1 [Example 45, 2-(4-fluorobiphenyl-2-yl)-N-methylacetamide] | 0% | 100% | 100% | – | – | – |
| CNC(=O)Cc1cc(F)ccc1-c1ccccc1F [Example 47, 2-(2′,4-difluorobiphenyl-2-yl)-N-methylacetamide] | 0% | 100% | 100% | – | – | – |
| NC(=O)Cc1cc(F)ccc1-c1cccc(Cl)c1 [Example 48, 2-(3′-chloro-4-fluorobiphenyl-2-yl)acetamide] | 100% | 33.3% | 100% | 33.3% | – | – |
| NC(=O)Cc1ccccc1-c1ccc(Br)cc1 [Example 49, 2-(4′-Bromobiphenyl-2-yl)acetamide] | 66.7% | 0% | 66.7% | 0% | – | – |
| NC(=O)Cc1ccccc1-c1ccc(C(F)(F)F)cc1 [Example 51] | 33.3% | 0% | 100% | – | – | – |
| CNC(=O)Cc1ccccc1-c1ccc(Br)cc1 [Example 53, 2-(4′-Bromobiphenyl-2-yl)-N-methylacetamide] | 0% | 66.7% | 100% | – | – | – |
| CNC(=O)Cc1ccccc1-c1ccccc1 [Example 54, 2-(biphenyl-2-yl)-N-methylacetamide] | 33.3% | 100% | 100% | – | – | – |
| CNC(=O)Cc1ccccc1-c1cccc(Br)c1 [Example 55] | 0% | 0% | 100% | – | – | – |
| CC(C(N)=O)c1ccccc1-c1ccccc1 (stereo not drawn) [Example 56, 2-(Biphenyl-2-yl)propanamide] | 66.7% | 0% | 100% | 100% | – | – |

| SMILES | responders at 100 mg/kg [1] | responders at 50 mg/kg [2] | responders at 100 mg/kg [2] | responders at 50 mg/kg [1] | anticonvulsant action in subcutaneously pentetrazol-injected model (scPTZ) test [1] | anticonvulsant action in maximum electroshock seizure (MES) model test [2] |
| --- | --- | --- | --- | --- | --- | --- |
| CNC(=O)C(C)c1ccccc1-c1ccccc1 (stereo not drawn) [Example 57, 2-(biphenyl-2-yl)-N-methyl propanamide] | 66.7% | 66.7% | 66.7% | 66.7% | anticonvulsant action was observed | anticonvulsant action was observed |
| CNC(=O)C(C)c1ccccc1-c1ccccc1F (stereo not drawn) [Example 58, 2-(2′-fluorobiphenyl-2-yl)-N-methyl propanamide] | 66.7% | 0% | 66.7% | 0% | – | – |
| COC(C(N)=O)c1ccccc1-c1ccccc1 (stereo not drawn) [Example 61, 2-(Biphenyl-2-yl)-2-methoxyacetamide] | 100% | 0% | 66.7% | 0% | – | – |
| CNC(=O)C(OC)c1ccccc1-c1ccccc1 (stereo not drawn) [Example 62, 2-(biphenyl-2-yl)-2-methoxy-N-methylacetamide] | 33.3% | 66.7% | 100% | – | – | – |
| COC(C(=O)N(C)C)c1ccccc1-c1ccccc1 (stereo not drawn) [Example 63, 2-(biphenyl-2-yl)-2-methoxy-N,N-dimethylacetamide] | 66.7% | 0% | 66.7% | 33.3% | – | – |
| NC(=O)Cc1ccccc1-c1ccc(F)c(Cl)c1 [Example 65] | 33.3% | – | 66.7% | – | – | – |
| NC(=O)Cc1ccccc1-c1ccc(Cl)c(F)c1 [Example 66] | 33.3% | – | 66.7% | – | – | – |
| NC(=O)Cc1ccccc1-c1cc(F)cc(F)c1F [Example 67, 2-(2′,3′,5′-trifluorobiphenyl-2-yl)acetamide] | 66.7% | 66.7% | 66.7% | 66.7% | anticonvulsant action was observed | anticonvulsant action was observed |
| NC(=O)Cc1ccccc1-c1ccc(Cl)cc1F [Example 68, 2-(4′-chloro-2′-fluorobiphenyl-2-yl)acetamide] | 66.7% | 0% | 100% | 0% | – | – |
| NC(=O)Cc1ccccc1-c1cc(F)c(F)cc1F [Example 69] | 66.7% | – | 33.3% | – | – | – |
| NC(=O)Cc1ccccc1-c1ccc(OC(F)(F)F)c(F)c1 [Example 70, 2-[3′-fluoro-4′-(trifluoromethoxy)biphenyl-2-yl]acetamide] | 66.7% | 33.3% | 100% | 66.7% | – | – |
| NC(=O)Cc1ccccc1-c1cc(C(F)(F)F)cc(C(F)(F)F)c1 [Example 72] | 0% | – | 66.7% | – | – | – |
| NC(=O)Cc1ccccc1-c1cc(F)cc(C(F)(F)F)c1 [Example 73, 2-[3′-fluoro-5′-(trifluoromethyl)biphenyl-2-yl]acetamide] | 100% | 33.3% | 100% | 0% | – | – |
| NC(=O)Cc1ccccc1-c1ccc(C(F)(F)F)cc1C(F)(F)F [Example 74] | 33.3% | – | 66.7% | – | – | – |
| NC(=O)Cc1ccccc1-c1ccc(Cl)c(C(F)(F)F)c1 [Example 75, 2-[4′-chloro-3′-(trifluoromethyl)biphenyl-2-yl]acetamide] | 66.7% | 0% | 100% | 33.3% | – | – |
| NC(=O)Cc1ccccc1-c1ccc(OC(F)(F)F)cc1 [Example 76, 2-[4′-(trifluoromethoxy)biphenyl-2-yl]acetamide] | 66.7% | 0% | 100% | 33.3% | – | – |
